Laboratory results: ChEMBL document CHEMBL1156671, “QSAR studies on benzoylaminobenzoic acid derivatives as inhibitors of beta-ketoacyl-acyl carrier protein synthase III” (Eur J Med Chem, 2008)

Tests used:
Staphylococcus aureus = assay: Antibacterial activity against Staphylococcus aureus; assay type: functional
Streptococcus pneumoniae = assay: Antibacterial activity against Streptococcus pneumoniae; assay type: functional
Neisseria meningitidis = assay: Antibacterial activity against Neisseria meningitidis; assay type: functional
Escherichia coli = assay: Antibacterial activity against Escherichia coli; assay type: functional
[1] = molecular target: T1, Beta-ketoacyl-[acyl-carrier-protein] synthase III (Enterococcus faecalis (strain ATCC 700802 / V583), UniProt Q820T1); assay: Inhibition of Enterococcus faecalis FabH by FabD/FabH coupled assay
T1 sequence (Q820T1 whole entry): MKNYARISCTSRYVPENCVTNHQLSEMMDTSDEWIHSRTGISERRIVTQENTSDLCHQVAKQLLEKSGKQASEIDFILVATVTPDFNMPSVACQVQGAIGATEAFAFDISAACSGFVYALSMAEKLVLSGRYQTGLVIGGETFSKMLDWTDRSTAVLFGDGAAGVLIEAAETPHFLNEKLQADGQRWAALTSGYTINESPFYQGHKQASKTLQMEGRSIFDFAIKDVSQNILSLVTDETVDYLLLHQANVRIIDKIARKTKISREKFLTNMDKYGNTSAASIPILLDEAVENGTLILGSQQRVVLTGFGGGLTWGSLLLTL

| SMILES | -logMIC (Staphylococcus aureus) | -logMIC (Streptococcus pneumoniae) | -logMIC (Neisseria meningitidis) | -logMIC (Escherichia coli) | IC50 [1] |
| --- | --- | --- | --- | --- | --- |
| O=C(Nc1ccccc1C(=O)O)c1ccc(-c2ccccc2)c(Oc2ccccc2)c1 | 4.947 | 5.854 | 5.854 | 5.854 |  |
| O=C(Nc1ccccc1C(=O)O)c1ccc(-c2ccc(C(F)(F)F)cc2)c(Oc2ccccc2)c1 | 5.252 | 6.155 | 5.854 | 6.155 |  |
| CC(C)c1cccc(-c2ccc(C(=O)Nc3ccccc3C(=O)O)cc2Oc2ccccc2)c1 | 5.252 | 5.854 | 5.854 | 5.553 |  |
| O=C(Nc1ccccc1C(=O)O)c1ccc(-c2ccc(F)cc2F)c(Oc2ccccc2)c1 | 5.252 | 5.553 | 6.444 | 6.155 |  |
| CS(=O)(=O)c1ccc(-c2ccc(C(=O)Nc3ccccc3C(=O)O)cc2Oc2ccccc2)cc1 | 4.347 | 4.347 | 5.252 | 5.252 |  |
| Cc1cc(-c2ccc(C(=O)Nc3ccccc3C(=O)O)cc2Oc2ccccc2)ccc1Cl | 5.252 | 5.553 | 6.155 | 6.155 |  |
| CC1CC(C)CN(c2ccc(C(=O)Nc3ccccc3C(=O)O)cc2Oc2ccccc2)C1 (stereo not given) | 5.252 | 5.553 | 5.553 | 5.252 |  |
| Cc1cc(-c2ccc(C(=O)Nc3ccccc3C(=O)O)cc2Oc2ccccc2)ccc1F | 5.252 | 6.155 | 6.155 | 6.155 |  |
| O=C(Nc1ccccc1C(=O)O)c1cc(O)c(Br)c(Oc2ccccc2)c1 | 4.347 | 4.347 | 5.553 | 5.553 | 62.1 nM |
| O=C(Nc1ccccc1C(=O)O)c1cc(O)c(-c2ccccc2)c(Oc2ccccc2)c1 | 4.658 | 4.658 | 5.854 | 5.854 | 4 nM |
| O=C(Nc1ccccc1C(=O)O)c1cc(O)cc(Oc2ccccc2)c1 |  |  |  |  | 410 nM |
| O=C(NC1=CCSC1C(=O)O)c1cccc(Oc2ccccc2)c1 (stereo not given) |  |  |  |  | 10100 nM |
| O=C(NC1SC=CC1C(=O)O)c1cccc(Oc2ccccc2)c1 (stereo not given) |  |  |  |  | 43000 nM |
